From patent US20250257034A1, “INDOLE DERIVATIVES AS SEROTONERGIC AGENTS USEFUL FOR THE TREATMENT OF DISORDERS RELATED THERETO” (priority 2023, published 2025)
Several values for one entry are separate records, joined by “and”; a condition that tells them apart may be missing. Identical values can stand only once.

Key:
Type in all cases: in vitro ADME
[1] = Rat liver microsomes stability; conditions: for CLint (μL/min/mg protein) / t1/2 / half-life at 2 μM / microsomal CLint at 2 μM: 2 μM compound; for half-life at 2 μM / microsomal CLint at 2 μM: male, rat; for microsomal CLint at 2 μM: read-out: CLint (μL/min/mg protein)
Experimental: (§1) The objective of this study was to estimate in vitro metabolic stability of exemplary compounds of Formula (I) or a pharmaceutically acceptable salt, solvate, and/or prodrug thereof in pooled human, male rat, and male mouse liver microsomes. The concentrations of compounds in reaction systems were evaluated by LC-MS/MS for estimating the stability in pooled human, male rat, and male mouse liver microsomes. The in vitro intrinsic clearances of test compounds were determined as well.
(§2) A master solution in the “Incubation Plate” containing phosphate buffer, ultra-pure H2O, MgCl2 solution and liver microsomes was made according to Table 33. The mixture was pre-warmed at 37° C. water bath for 5 minutes.
(§3) 40 μL of 10 mM nicotinamide adenine dinucleotide phosphate (NADPH) solution was added to each well. The final concentration of NADPH was 1 mM. The negative control samples were prepared by replacing NADPH with 40 μL of ultra-pure H2O. Samples were prepared in duplicate. Negative controls were prepared in singlet.
(§4) The reaction was started with the addition of 4 μL of 200 μM exemplary test compounds of the disclosure or control compounds to each master solution to get the final concentration of 2 μM. This study was performed in duplicate.
(§5) Aliquots of 50 μL were taken from the reaction solution at 0, 15, 30, 45, and 60 minutes. The reaction solutions were stopped by the addition of 4 volumes of cold methanol with IS (100 nM alprazolam, 200 nM imipramine, 200 nM labet alol and 2 μM ketoprofen). Samples were centrifuged at 3,220 g for 40 minutes. Aliquot of 90 μL of the supernatant was mixed with 90 μL of ultra-pure H2O and then was used for LC-MS/MS analysis.
(§6) LC/MS analysis was performed for all samples from this study using a Shimadzu liquid chromatograph separation system equipped with degasser DGU-20A5R; solvent delivery unit LC-30AD; system controller SIL-30AC; column oven CTO-30A; CTC Analytics HTC PAL System. Mass spectrometric analysis was performed using a Triple Quad™ 5500 instrument.
(§7) All calculations were carried out using Microsoft Excel. Peak area ratios of test compound to internal standard (listed in the below table) were determined from extracted ion chromatograms.
(§8) All calculations were carried out using Microsoft Excel. Peak areas were determined from extracted ion chromatograms. The slope value, k, was determined by linear regression of the natural logarithm of the remaining percentage of the parent drug vs. incubation time curve.
(§9) The in vitro half-life (in vitro t1/2) was determined from the slope value:
(§10) Conversion of the in vitro t1/2(min) into the in vitro intrinsic clearance (in vitro CLint, in μL/min/mg proteins) was done using the following equation (mean of duplicate determinations): […]
(§11) A master solution in the “Incubation Plate” containing phosphate buffer, ultra-pure H2O, MgCl2 solution and liver microsomes was made according to Table 63. The mixture was pre-warmed at 37° C. water bath for 5 minutes.
(§12) 40 μL of 10 mM NADPH solution was added to each well. The final concentration of NADPH was 1 mM. The negative control samples were prepared by replacing NADPH with 40 μL of ultra-pure H2O. Samples were prepared in duplicate. Negative controls were prepared in singlet.
(§13) Conversion of the in vitro t1/2(min) into the in vitro intrinsic clearance (in vitro C Lt, in μL/min/mg proteins) was done using the following equation (mean of duplicate determinations): […]

[2] = Mouse liver microsomes stability; conditions: for microsomal CLint at 2 μM: mouse, read-out: CLint (μL/min/mg protein)
Experimental: as §1, §2, §3, §4, §5, §6, §7, §8, §9, §10, §11, §12, §13

[3] = Human liver microsomes stability; conditions: for CLint (μL/min/mg protein) / t1/2: 2 μM compound
Experimental: as §1, §2, §3, §4, §5, §6, §7, §8, §9, §10, §11, §12, §13

[4] = Rat liver microsomes, 0.5 mg/mL microsomes, 1 mM NADPH
[5] = Rat liver microsomes, 0.5 mg/mL microsomes, 1 mM NADPH, 37° C
[6] = rat liver microsomes, 0.5 mg/mL
[7] = rat liver microsomes, With Cofactors, 0 min
[8] = rat liver microsomes, With Cofactors, 30 min
[9] = rat liver microsomes, With Cofactors, 60 min
[10] = rat liver microsomes, Without Cofactors, 0 min
[11] = rat liver microsomes, Without Cofactors, 30 min
[12] = rat liver microsomes, Without Cofactors, 60 min
[13] = mouse liver microsomes, 2 μM compound, 0.5 mg/mL
[14] = mouse liver microsomes, With Cofactors, 0 min
[15] = mouse liver microsomes, With Cofactors, 30 min
[16] = mouse liver microsomes, With Cofactors, 60 min
[17] = mouse liver microsomes, Without Cofactors, 0 min
[18] = mouse liver microsomes, Without Cofactors, 30 min
[19] = mouse liver microsomes, Without Cofactors, 60 min
[20] = human liver microsomes, 0.5 mg/mL
[21] = human liver microsomes, With Cofactors, 0 min
[22] = human liver microsomes, With Cofactors, 30 min
[23] = human liver microsomes, With Cofactors, 60 min
[24] = human liver microsomes, Without Cofactors, 0 min
[25] = human liver microsomes, Without Cofactors, 30 min
[26] = human liver microsomes, Without Cofactors, 60 min
[27] = pooled liver microsomes, rat liver microsomes, 0.5 mg/mL

SMILES: COc1ccc2[nH]cc(CCN(C)C)c2c1 [Compound 5-MeO-DMT]
- Predicted hepatic CL ([1]; Rat liver microsomes): 49.02 mL/min/kg
- Scaled-up CLint ([1]; Rat liver microsomes): 437.56 mL/min/kg
- CLint (μL/min/mg protein) [1, 4]: 244.17 μL/min/mg protein
- t1/2 [1, 5]: 5.68 min
- Predicted hepatic CL ([1]; rat liver microsomes): 49.02 mL/min/kg
- Scaled-up CLint ([1]; rat liver microsomes): 437.56 mL/min/kg
- CLint (μL/min/mg protein) [1, 6]: 244.17 μL/min/mg protein
- t1/2 [1, 6]: 5.68 min
- Remaining Percentage (%) [1, 7]: 100.00%
- Remaining Percentage (%) [1, 8]: 2.57%
- Remaining Percentage (%) [1, 9]: 0.36%
- Remaining Percentage (%) [1, 10]: 100.00%
- Remaining Percentage (%) [1, 11]: 49.55%
- Remaining Percentage (%) [1, 12]: 23.82%
- Predicted hepatic CL ([2]; Mouse liver microsomes): 54.19 mL/min/kg
- Scaled-up CLint ([2]; Mouse liver microsomes): 136.21 mL/min/kg
- CLint (μL/min/mg protein) ([2]; Mouse liver microsomes, 2 μM compound, 0.5 mg/mL microsomes, 1 mM NADPH): 31.13 μL/min/mg protein
- t1/2 ([2]; Mouse liver microsomes, 2 μM compound, 0.5 mg/mL microsomes, 1 mM NADPH, 37° C): 44.52 min
- Predicted hepatic CL ([2]; mouse liver microsomes): 54.19 mL/min/kg
- Scaled-up CLint ([2]; mouse liver microsomes): 136.21 mL/min/kg
- CLint (μL/min/mg protein) [2, 13]: 31.13 μL/min/mg protein
- t1/2 [2, 13]: 44.52 min
- Remaining Percentage (%) [2, 14]: 100.00%
- Remaining Percentage (%) [2, 15]: 61.84%
- Remaining Percentage (%) [2, 16]: 39.30%
- Remaining Percentage (%) [2, 17]: 100.00%
- Remaining Percentage (%) [2, 18]: 104.76%
- Remaining Percentage (%) [2, 19]: 95.24%
- Predicted hepatic CL ([3]; Human liver microsomes): 18.09 mL/min/kg
- Scaled-up CLint ([3]; Human liver microsomes): 143.22 mL/min/kg
- CLint (μL/min/mg protein) ([3]; Human liver microsomes, 0.5 mg/mL microsomes, 1 mM NADPH): 114.19 μL/min/mg protein
- t1/2 ([3]; Human liver microsomes, 0.5 mg/mL microsomes, 1 mM NADPH, 37° C): 12.14 min
- Predicted hepatic CL ([3]; human liver microsomes): 18.09 mL/min/kg
- Scaled-up CLint ([3]; human liver microsomes): 143.22 mL/min/kg
- CLint (μL/min/mg protein) [3, 20]: 114.19 μL/min/mg protein
- t1/2 [3, 20]: 12.14 min
- Remaining Percentage (%) [3, 21]: 100.00%
- Remaining Percentage (%) [3, 22]: 19.24%
- Remaining Percentage (%) [3, 23]: 3.25%
- Remaining Percentage (%) [3, 24]: 100.00%
- Remaining Percentage (%) [3, 25]: 18.58%
- Remaining Percentage (%) [3, 26]: 3.00%

SMILES: O=C(O)Cc1ccccc1Nc1c(Cl)cccc1Cl [Diclofenac]
- Predicted hepatic CL ([1]; Rat liver microsomes): 41.22 mL/min/kg and 41.25 mL/min/kg
- CLint (μL/min/mg protein) [1, 4]: 91.05 μL/min/mg protein
- t1/2 [1, 5]: 15.22 min
- half-life at 2 μM ([1]; liver microsomes, Rat liver microsomes, 0.5 mg/mL microsomes, 1 mM NADPH, 37° C): 15.3 min
- microsomal CLint at 2 μM ([1]; liver microsomes, Rat liver microsomes, 0.5 mg/mL microsomes, 1 mM NADPH): 90.8 µL/min/mg
- half-life at 2 μM [1, 27]: 15.1 min
- microsomal CLint at 2 μM [1, 27]: 91.9 µL/min/mg
- Predicted hepatic CL ([1]; rat liver microsomes): 41.34 mL/min/kg and 41.25 mL/min/kg
- CLint (μL/min/mg protein) [1, 6]: 91.05 μL/min/mg protein
- t1/2 [1, 6]: 15.22 min
- Remaining Percentage (%) [1, 7]: 100.00%
- Remaining Percentage (%) [1, 8]: 11.86%
- Remaining Percentage (%) [1, 9]: 6.35%
- Remaining Percentage (%) [1, 10]: 100.00%
- Remaining Percentage (%) [1, 11]: 102.19%
- Remaining Percentage (%) [1, 12]: 100.63%
- Predicted hepatic CL ([2]; Mouse liver microsomes): 54.78 mL/min/kg and 56.11 mL/min/kg
- microsomal CLint at 2 μM ([2]; male, liver microsomes, Mouse liver microsomes, 2 μM compound, 0.5 mg/mL microsomes, 1 mM NADPH): 32 µL/min/mg
- microsomal CLint at 2 μM ([2]; male, pooled liver microsomes, mouse liver microsomes, 2 μM compound, 0.5 mg/mL): 32 µL/min/mg
- half-life at 2 μM ([2]; male, Mouse liver microsomes, 2 μM compound, 0.5 mg/mL microsomes, 1 mM NADPH, 37° C): 40.7 min
- Predicted hepatic CL ([2]; mouse liver microsomes): 54.78 mL/min/kg and 57.42 mL/min/kg
- Scaled-up CLint ([2]; mouse liver microsomes): 158.60 mL/min/kg
- CLint (μL/min/mg protein) [2, 13]: 36.25 μL/min/mg protein
- t1/2 [2, 13]: 38.23 min
- Remaining Percentage (%) [2, 14]: 100.00%
- Remaining Percentage (%) [2, 15]: 45.55%
- Remaining Percentage (%) [2, 16]: 33.71%
- Remaining Percentage (%) [2, 17]: 100.00%
- Remaining Percentage (%) [2, 18]: 89.49%
- Remaining Percentage (%) [2, 19]: 96.59%
- Predicted hepatic CL ([3]; Human liver microsomes): 18.38 mL/min/kg and 18.35 mL/min/kg
- Predicted hepatic CL ([3]; human liver microsomes): 18.44 mL/min/kg and 18.35 mL/min/kg
- Remaining Percentage (%) [3, 21]: 100.00%
- Remaining Percentage (%) [3, 22]: 5.01%
- Remaining Percentage (%) [3, 23]: 1.77%
- Remaining Percentage (%) [3, 24]: 100.00%
- Remaining Percentage (%) [3, 25]: 112.67%
- Remaining Percentage (%) [3, 26]: 96.67%
